According to patent publication US20060014231A1, “Methods and compositions to promote bone homeostasis” (priority 2004, published 2006):

Tested on: RUNX2
Assay: DN-RUNX2 assay: interference with up-regulation of AP activity in MPCs
Type: cell-based, human
Conditions: Ad-NR1H3 + T0901317 plus Ad-DN-RUNX2 versus Ad-luciferase, 6 days post infection
Excerpt: Since the osteogenic activity of BMP2 is known to work through RUNX2, Ad-BMP2 and Ad-DN-RUNX2 viruses are used to develop the DN-RUNX2 assay. The human full-length RUNX2 cDNA is obtained by RT-PCR from total RNA extracted from MPCs. The 5′ part of the cDNA encoding amino acids 1-214 is obtained by PCR from the cloned RUNX2 cDNA and subcloned in an adenoviral adapter plasmid. The identity of the cloned fragment is verified by sequencing. This plasmid is used to generate an adenoviral stock, as described in WO 9964582.
MPCs are seeded at 1000 cells/well in a 384 well plate and infected the next day with adenoviruses encoding hCAR (MOI 250), Ad-BMP2 (MOIs 6000, 2000, 666) and one of Ad-DN-RUNX2 or Ad-luciferase (MOIs 2000 or 666). Alkaline phosphatase activity is read 6 days post infection.
The DN-RUNX2 assay is used to test the involvement of RUNX2 in the up-regulation of AP activity by NR5A2, NR1H3, and ESRRG. MPCs are seeded at 1000 cells/well in a 384 well plate and are infected the next day with adenoviruses encoding hCAR (MOI 250), Ad-BMP2, Ad-ESRRG, Ad-NR5A2, Ad-NR1H3 (MOIs 6000, 2000, 666) and one of Ad-DN-RUNX2 or Ad-luciferase (MOI 1000 or MOIs 2000 and 666) (see FIG. 19(C)). Alkaline phosphatase activity is read 6 days post infection and raw data are analysed.

How did the “up-regulation of AP activity induced by NR1H3 in the presence of T0901317, under overexpression of DN-RUNX2” value turn out when `O=S(=O)(c1ccccc1)N(CC(F)(F)F)c1ccc(C(O)(C(F)(F)F)C(F)(F)F)cc1` [T0901317] was run?
Its value is “significantly reduces”.
